In patent US10662411B2, “Culture method for stable proliferation of pluripotent stem cell while maintaining undifferentiated state” (AJINOMOTO CO., INC., priority 2013, dated 2020):
Counter-ions that a name gives are not always drawn.

Experiments:
Assay type in all cases: cell-based, human
[1] = test system: induced pluripotent stem cells (iPS cells, 201B7 strain); test: Proliferation promoting effect of ethanolamine analogs, laminin 511 fragment, single cell-seeding; conditions: 1 week
Method: (§1) In the following Examples, proliferation effects of various test compounds on human pluripotent stem cells were evaluated. As human pluripotent stem cells, induced pluripotent stem cells (iPS cells, 201B7 strain) purchased from iPS Academia Japan, Inc. were used, unless particularly specified. Cell culture was performed using a culture vessel (Becton, Dickinson and Company, Falcon culture petri dish or Falcon culture plate) coated with a basal lamina matrix under the conditions of 5% CO2/37° C.
(§2) Various test compounds were added to a medium having the “E8” composition (disclosed in Nature Methods, 2011, 8, 424-429, which is incorporated herein by reference in its entirety) considered at present to be the minimum composition for cultivating human pluripotent stem cells at given concentrations and used for culture, and the effects thereof were studied. The medium was prepared by using Essential 8 (Life Technologies: A14666SA) considered to have the “E8” composition or a medium formulated to have an equivalent composition.
(§3) After the culture, the cell number was counted to examine the effect of O-phosphoryl ethanolamine. The culture period was set to 1 week. 13,000 viable cells per well were used for single cell-seeding. As a basal lamina matrix, a fragment containing the active domain of laminin 511, which was purchased from Osaka University, was applied at 4.8 μg/well. Y-27632 was added (final concentration 10 μM, Nacalai Tesque: 08945-84) to the medium used for seeding. The cells were cultured in a medium free of Y-27632 from the following day. The number of viable cells was measured by Cell Viability autoanalyzer ViCELL™ XR (BECKMAN COULTER).
as §3, with “2-(methylamino)ethanol.” for “O-phosphoryl ethanolamine.”
as §3, with “2-dimethylaminoethanol.” for “O-phosphoryl ethanolamine.”
as §3, with “ethanolamine hydrochloride.” for “O-phosphoryl ethanolamine.”, “The cells were cultured in a medium free of Y-27632 from the following day.” left out

[2] = test system: induced pluripotent stem cells (iPS cells, 201B7 strain); test: Proliferation promoting effect of ethanolamine, culture using matrigel; conditions: 6, 30, 150, 750 or 3,750 μM, 8 days, single cell-seeding
Method: as §1, §2
Ethanolamine (Sigma-Aldrich Co. LLC: E0135) was added at a final concentration of 6, 30, 150, 750 or 3,750 μM, and the medium was used for culture immediately after preparation, and the effect of ethanolamine was examined by studying the cell numbers after culture. The culture period was 8 days. 100,000 cells per 1 well were used for single cell-seeding. […]

[3] = test system: induced pluripotent stem cells (iPS cells, 201B7 strain); test: Proliferation promoting effect of ethanolamine and combination with albumin, laminin 511 fragment, single cell-seeding; conditions: 1 week
Method: as §1, §2
Ethanolamine (Sigma-Aldrich Co. LLC: E0135) was added at a final concentration of 6, 30, 150, 750 or 3,750 μM, and the medium was used for culture immediately after preparation, and the effect of ethanolamine was examined by studying the cell numbers after culture. The culture period was 1 week. […] 13,000 viable cells per 1 well were used for single cell-seeding. As a basal lamina matrix, a fragment containing the active domain of laminin 511, which was purchased from Osaka University, was applied at 5 μg/well. Y-27632 was added (final concentration 10 μM, Nacalai Tesque: 08945-84) to the medium used for seeding. The cells were cultured in a medium free of Y-27632 from the following day. The number of viable cells was measured by Trypan Blue (Life Technologies: 15250-061) staining using a hemocytometer.

[4] = test system: induced pluripotent stem cells (iPS cells, 201B7 strain); test: Influence of oleic acid carried by albumin on cell proliferation; conditions: oleic acid carried by albumin 2.2, 6.5, 21.7 mg/g (20, 60, 200 μM in medium); albumin 2.6 g/l, ethanolamine 30 μM; one week
Method: as §1
Furthermore, a suspension of activated carbon (5 g, manufactured by Wako Pure Chemical Industries, Ltd.) heated at 200° C. for 30 min in advance in phosphate buffer (20 ml) was added to 100 ml. After stirring at 4° C. for 3 hr, the mixture was centrifuged at 4° C., 11,900 rpm for 20 min. […] Ethanolamine (final concentration 30 μM) was added to each medium. Using each medium, the cells were cultured for one week, and the cell number after culture was confirmed to study the influence of oleic acid. 13,000 viable cells per well were used for single cell-seeding. As a basal lamina matrix, a fragment containing the active domain of laminin 511, which was purchased from Osaka University, was applied at 4.8 μg/well. […] The number of viable cells was measured by Cell Viability autoanalyzer ViCELL™ XR (BECKMAN COULTER).

[5] = 6, 30, 150 or 750 μM in medium with albumin 2.6 g/l

## NCCO [ethanolamine hydrochloride]
[1]; [5]
  cell number relative to non-addition group (0 μM): proliferation-promoting effect in a relatively wide concentration range

## NCCO [ethanolamine]
[2]
  cell number after culture: proliferation promoting effect in a wide concentration range
[3]; 6, 30, 150, 750 or 3,750 μM, without albumin
  cell number relative to non-addition group (0 μM): proliferation-promoting effect in a relatively wide concentration range
[3]; 6-3,750 μM combined with albumin 2.6 g/l
  cell number relative to non-addition group (0 μM): combination with albumin further enhances the proliferation promoting effect
[3]; high concentration range combined with albumin 2.6 g/l
  cell number relative to non-addition group (0 μM): resists a proliferation suppressive effect in a high concentration range, and shows a proliferation promoting effect
[3]; high concentration range, without albumin
  cell number relative to non-addition group (0 μM): proliferation suppressive effect conversely appears in a high concentration range

## NCCOP(=O)(O)O [O-phosphoryl ethanolamine]
[1]; [5]
  cell number relative to non-addition group (0 μM): proliferation-promoting effect in a relatively wide concentration range

## CN(C)CCO [2-dimethylaminoethanol]
[1]; [5]
  cell number relative to non-addition group (0 μM): proliferation promoting effect in a relatively wide concentration range
[1]; high concentration range, medium with albumin 2.6 g/l
  cell number relative to non-addition group (0 μM): proliferation suppressive effect appears in a high concentration range

## CNCCO [2-(methylamino)ethanol]
[1]; [5]
  cell number relative to non-addition group (0 μM): proliferation-promoting effect in a relatively wide concentration range

## CCCCCCCC/C=C\CCCCCCCC(=O)O [oleic acid]
[4]
  cell number after culture: cell proliferation was suppressed along with an increasing amount of oleic acid carried by albumin
